{"source": "patent US20250263671A1", "about": "“NEURON-INNERVATED ASSEMBLOIDS AND METHODS OF MAKING THE SAME” (University of Georgia Research Foundation, Inc., priority 2024, published 2025)", "key": {"neonatal mouse hearts": {"tested_on": "neonatal mouse hearts", "settings": "symN lesions in neonatal mouse hearts; cited from earlier work"}, "hSCAs [1]": {"tested_on": "hSCAs", "test": "labetalol treatment during hSCA development: assembloid size and cell count", "type": "cell-based, human", "description": "(§1) The effect of SymN activation on heart development has been reported, potentially through NE and adrenergic signaling^22,23. […] To test if the symNs in hSCAs play a regulatory role on cardiac development and maturation, the assembloids were treated with α- and β-adrenergic receptor antagonist labetalol (LAB, 1 μM) to fully block the NE signaling during the growth of the hSCAs (FIG. 4B). The drug was given from wk3, the stage when the assembloid growth almost reaches its plateau (FIG. 1E). Given that symN activity may promote cellular hyperplastic to hypertrophic transition of CM^22,23, the overall size of hSCAs was compared on wk5 after LAB treatment."}, "hSCAs [2]": {"tested_on": "hSCAs", "test": "RT-qPCR of wk5 hSCAs for cardiac maturity markers after labetalol treatment", "type": "cell-based, human", "settings": "LAB 1 μM given from wk3, wk5 hSCAs, vs DMSO", "description": "(§2) 0.5×10^6 cells were collected using Trizol (Invitrogen, 15596026) for each sample. Reverse transcription with 1 μg total RNA was performed using iScript™ Reverse Transcription Supermix (Bio-Rad, 170884). SYBR green (Bio-Rad) RT-qPCR was ran using CFX96 Touch Deep Well Real-Time PCR Detection System (Bio-Rad), and analyzed by CFX Maestro.\nas §1"}, "hPSC-derived CMs": {"tested_on": "hPSC-derived CMs", "settings": "CMs alone, without physical connection with symNs; cited from earlier work"}, "symNs within the hSCAs": {"tested_on": "symNs within the hSCAs", "settings": "nicotine 1 μM, wk5 hSCAs", "experimental": "To assess symN activity, calcium (Ca^2+) imaging was performed using Fluo-4 Ca^2+ labeling. To be able to distinguish Ca^2+ fluxes in symNs and not in cardiac tissues, symNblast were differentiated using the EF1-RFP reporter hPSC line and mixed with unlabeled cardiac progenitors (FIG. 3F)."}, "hPSC-derived symNs": {"tested_on": "hPSC-derived symNs", "settings": "nicotine treatment; cited from earlier work"}, "hypoxic hSCAs": {"tested_on": "hypoxic hSCAs", "test": "low oxygen (hypoxia-induced) cardiac infarction model on wk5 hSCAs", "type": "cell-based, human", "description": "as §2\nWk5 hSCAs were fed with hSCA medium and placed into the hypoxia chamber (incubator subchamber system with O2/CO2 setpoint control, BioSpherix) with 10% O2, control group was maintained in regular culture condition (21% O2). hSCAs in both conditions were fed with fresh hSCA medium every 3 days for 10 days.\nTo test the effect of sympathetic input to cardiac function in the assembloids in a diseased state, a strategy was developed to model myocardial infarction. A model of myocardial infarction in cardiac organoids has been described^55. In this model, a moderate hypoxic environment (10% O2) was applied, which prevented massive and sudden cell death in 3D cardiac microtissues and allowed the observation of the progression of infarction. In addition to hypoxia, exogenous NE was added to the cardiac organoids to mimic the effects of increased sympathetic tone to the heart. […] The hypoxic stress stimulated overproduction of endogenous NE from symNs in hSCAs, measured via the NS510 probe and ELISA (FIG. 5C). […]"}}, "note": "Entries after “also recorded” stand apart in the source; their conditions may differ.", "data": [{"smiles": "NCCc1cc(O)c(O)cc1O", "note": "[6-OHDA, 6-hydroxydopamine]", "values": [{"measurement": "proliferation of CMs", "setting": "neonatal mouse hearts", "value": "increased"}]}, {"smiles": "CC(CCc1ccccc1)NCC(O)c1ccc(O)c(C(N)=O)c1", "note": "(stereo not drawn) [LAB, labetalol]", "values": [{"measurement": "overall size of hSCAs", "setting": "hSCAs [1]; LAB 1 μM given from wk3, compared on wk5, vs DMSO", "value": "Differences in assembloid size were not observed; also recorded: not altered"}, {"measurement": "hSCA cell number", "setting": "hSCAs [1]; LAB-treated organoids compared to control, wk5", "value": "not altered"}, {"measurement": "expression of markers of CM maturity (CX43, α-ACTININ, and CD36), RT-qPCR", "setting": "hSCAs [2]", "value": "decreased expressions"}]}, {"smiles": "CC(C)NCC(O)c1ccc(O)c(O)c1", "note": "(stereo not drawn) [isoproterenol]", "values": [{"measurement": "improvement of CM maturity (mature cardiac gene expression, functional cardiac activity)", "setting": "hPSC-derived CMs", "value": "not sufficient to induce such maturity improvement"}]}, {"smiles": "CN1CCCC1c1cccnc1", "note": "(stereo not drawn) [nicotine]", "values": [{"measurement": "hSCA beating efficiency", "setting": "symNs within the hSCAs", "value": "increased hSCA beating efficiency"}, {"measurement": "spontaneous firing of action potentials", "setting": "hPSC-derived symNs", "value": "upregulated"}]}, {"smiles": "CC(C)NCC(O)COc1cccc2ccccc12", "note": "(stereo not drawn) [propranolol]", "values": [{"measurement": "impaired expression of Ca2+ handling genes, RT-qPCR", "setting": "hypoxic hSCAs; propranolol 1 μM in addition to low oxygen (10% O2, 10 days)", "value": "rescued"}, {"measurement": "cardiac fibrosis caused by hypoxic stress", "setting": "hypoxic hSCAs; propranolol along with the hypoxic stress", "value": "rescued"}]}]}
